Data on six compounds can be found in article PMC7340849 (Bioorganic & medicinal chemistry letters, 2020).

The target in experiment [1] is T1, D1R (Homo sapiens, UniProt P21728). The experiment in a line: D1R agonist/antagonist assays measuring cAMP modulation. The conditions noted are these: agonist mode.
Experiment [2] addresses T1, D1R. The experiment in a line: Binding affinity at dopamine D1R, [3H]SCH23390 radioligand. The following applies: for selectivity D1R over D5R: from Ki values.
Experiment [3] has as its target D5R (Homo sapiens, UniProt P21918). The experiment in a line: Binding affinity at dopamine D5R, [3H]SCH23390 radioligand. The conditions noted are these: from Ki values.

T1 sequence (P21728 whole entry): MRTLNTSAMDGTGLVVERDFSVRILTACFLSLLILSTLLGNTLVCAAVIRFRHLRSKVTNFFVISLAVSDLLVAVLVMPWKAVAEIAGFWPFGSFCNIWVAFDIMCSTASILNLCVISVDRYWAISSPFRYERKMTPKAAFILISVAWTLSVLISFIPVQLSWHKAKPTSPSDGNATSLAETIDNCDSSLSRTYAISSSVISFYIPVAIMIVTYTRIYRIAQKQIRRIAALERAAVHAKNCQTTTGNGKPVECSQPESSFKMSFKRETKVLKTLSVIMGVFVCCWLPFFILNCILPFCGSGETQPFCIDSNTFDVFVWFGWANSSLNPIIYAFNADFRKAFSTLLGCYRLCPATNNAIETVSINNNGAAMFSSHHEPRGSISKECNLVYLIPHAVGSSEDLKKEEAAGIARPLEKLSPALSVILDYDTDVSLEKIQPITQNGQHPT
Chain of D5R (P21918 whole entry): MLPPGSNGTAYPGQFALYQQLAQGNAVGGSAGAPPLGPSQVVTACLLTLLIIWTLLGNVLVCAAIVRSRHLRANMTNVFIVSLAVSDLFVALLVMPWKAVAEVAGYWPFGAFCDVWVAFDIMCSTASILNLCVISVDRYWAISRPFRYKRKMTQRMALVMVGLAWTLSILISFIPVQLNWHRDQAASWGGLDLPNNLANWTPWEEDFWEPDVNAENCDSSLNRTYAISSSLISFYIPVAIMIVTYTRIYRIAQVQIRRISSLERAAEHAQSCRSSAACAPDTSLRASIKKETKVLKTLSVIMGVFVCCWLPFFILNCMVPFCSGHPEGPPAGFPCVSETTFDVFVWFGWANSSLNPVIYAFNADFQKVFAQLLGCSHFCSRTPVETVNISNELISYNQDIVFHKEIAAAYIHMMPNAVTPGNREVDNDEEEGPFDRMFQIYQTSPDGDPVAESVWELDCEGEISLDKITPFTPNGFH

For `COc1cc2c(cc1O)C(c1ccccc1Cl)CN(C)CC2` (stereo not drawn) [Compound 10a], the agonist activity result in experiment [1] was “No agonist activity was detected”.
For `COc1cc2c(cc1O)C(c1ccccc1)CNCC2` (stereo not drawn) [Compound 6a], the “selectivity D1R over D5R” value in experiment [2] is on record as “up to 3 fold”.
On the same count and under the same terms, to `COc1cc2c(cc1O)C(c1ccccc1Cl)CNCC2` (stereo not drawn) [Compound 6b] belongs “up to 3 fold”; to `COc1cc2c(cc1O)C(c1ccccc1Br)CNCC2` (stereo not drawn) [Compound 6d], “up to 3 fold”.
In the case of `Oc1cc2c(cc1O)C(c1ccccc1Br)CNCC2` (stereo not drawn) [Compound 7], the “increase in D1R affinity versus C7 methoxy analog 6d” value in experiment [2] (catechol 7 compared with 6d) is “roughly 3 fold”.
Turning to `COc1cc2c(cc1O)C(c1c(Cl)cccc1Cl)CNCC2` (stereo not drawn) [Compound 6c], the “selectivity D5R over D1R” value in experiment [3] amounted to 3 fold.
